Results: patent publication US20190083495A1, “Methods Of Preventing Or Reducing A Fibrotic Response Using CSF1R Inhibitors” (Massachusetts Institute of Technology, priority 2016, published 2019)
“Also recorded” adds a separate entry of the source.

Experiments:
[1] = test system: C57BL/6 mice; experiment: Peritoneal lavage IP immune cell counts and FACS macrophage phenotype; format: in vivo
[2] = test system: Peritoneal exudate macrophages; experiment: Phagocytosis assay with fluorospheres; format: cell-based, C57BL/6 mice; conditions: macrophages from treated mice, 90 minutes with fluorospheres, vs vehicle
Source text: (§1) For in vivo wound healing: C57BL/6 mice were anesthetized (same as above) and shaved, and skin incisions 1.5 cm in length were made along the midline. Each incision was then wound clipped shut for both vehicle and daily GW2580-treated C57BL/6 mice. Wound clips were removed and then replaced each imaging day up until day 7 (required to maintain them up until at least this time), after which clips were left off completely. Photos were acquired on days 0, 1, 4, 7, 10, and 14 post-incision. After 14 days, mice were sacrificed, and skin samples were prepared for histological assessment (H&E and Masson's Trichrome) of both vehicle and GW2580 treatment groups. Cross-sections through the incision line were generated to assess the level of in vivo healing following a 14-day treatment regimen. For IP innate immune cell counts, FACS, and phagocytosis assays: cells were isolated by peritoneal lavage with 8 mL DPBS, diluted into RPMI, and then subsequently counted, and aliquoted either for staining and FACS analysis (as described above), or for phagocytosis assays. […] Following appropriate incubation times, samples were read in a black-wall 96-well plate with a Tecan fluorescent-capable Infinite M1000 plate reader.

[3] = test system: C57BL/6 mice; experiment: FACS analysis of immune cells dissociated from retrieved spheres, tissue and spleen; format: in vivo
Procedure: For targeted macrophage depletions, clodrosome (200 μL/mouse) (Encapsula Nano Sciences, Nashville, Tenn.) were injected intraperitoneally starting at −3 days (prior to implantation, day 0), and for every 7 days thereafter (so days −3, 4, and 11). To achieve neutrophil depletion, affinity purified anti-Ly6g (Clone 1A8) antibody (250 ug/mouse) (BioLegend, San Diego, Calif.) was administered also starting at day −3, and every 3 days thereafter (except the day of implantation). For the combination therapy, in order to avoid drug-antibody interactions, each agent was administered 4 hours apart from one another. To neutralize secreted CXCL13, anti-CXCL13 antibody (mAB470, R&D Systems) was injected i.p. in sterile 1×PBS at a dose of 100 μg/mouse, once every 3 days, starting 3 days prior to implantation as well. For selective macrophage inhibition and polarization, the CSF1R-targeted inhibitor GW2580 (LC Labs, Woburn, Mass.), was dissolved in a 1:1 DMSO/PEG400 solution, and injected daily (starting 1 day prior to implantation) at a dose of 160 mg/kg BW subcutaneously (s.c.), to eliminate concerns of vehicle directly perturbing responding immune cells as well as a recovering implant site.
Single-cell suspensions of freshly excised tissues were prepared using a gentleMACS Dissociator (Miltenyi Biotec, Auburn, Calif.) according to the manufacturer's protocol. […]

[4] = test system: VEGF; experiment: VEGF Luminex protein quantification of protein lysates; format: in vivo, C57BL/6 mice; conditions: lysates of alginate spheres and tissue retrieved at 14 days
Procedure: (§2) For targeted macrophage depletions, clodrosome (200 μL/mouse) (Encapsula Nano Sciences, Nashville, Tenn.) were injected intraperitoneally starting at −3 days (prior to implantation, day 0), and for every 7 days thereafter (so days −3, 4, and 11). To achieve neutrophil depletion, affinity purified anti-Ly6g (Clone 1A8) antibody (250 ug/mouse) (BioLegend, San Diego, Calif.) was administered also starting at day −3, and every 3 days thereafter (except the day of implantation). For the combination therapy, in order to avoid drug-antibody interactions, each agent was administered 4 hours apart from one another. […]
Cytokine array analysis was performed using the Luminex Bio-Rad Bio-Plex Pro mouse cytokine panel based on Luminex beads (multiplexing both the 23 and 8-cytokine arrays) (Bio-Rad, Hercules, Calif.), according to manufacturer's instructions. 1:4 diluted mouse sera samples were analyzed for the time course, and protein lysates taken from fibrosed tissue and alginate microspheres, loaded at a concentration of 500 μg/mL (200 uL per sample), were run to compare cytokine responses across mock (saline) treated versus wildtype, knockout or serially perturbed/depleted C57BL/6 mice implanted with 500 μm SLG20 alginate spheres. […] The plate was then read on a BioPlex-200 plate reader, with absolute concentrations obtained through fitting a standard curve. […]

[5] = test system: C57BL/6 mice; experiment: In vivo wound healing of skin incisions
Source text: as §1, with “assays. Peritoneal exudate macrophages isolated by IP lavage from (n=5) mice in each treatment group were immediately plated (400,000 cells/well in a 24-well plate) and incubated with fluorospheres for 90 minutes to determine phagocytic activity. 1 μm orange fluorospheres (540/560) (Cat# F13082, Invitrogen, Carlsbad, Calif.) were added to each well in a volume of 500 μL from an initial dilution of 20 μL into 10 mL. After addition, plates were spun down at 1,000 rpm for 1 min, and then placed in an incubator for 90 minutes to allow IP macrophages time to phagocytose the 1 μm diameter fluorospheres. Following the 90-minute incubation, all wells were fixed with 4% paraformaldehyde and stored at 4 C prior to imaging using a fluorescent and brightfield-capable EVOS microscope (Advanced Microscopy Group).” for “assays.”

[6] = test system: C57BL/6 mice; experiment: NanoString expression analysis of mouse cytokines and cytokine receptors; format: in vivo
Procedure: as §2, with “another. To neutralize secreted CXCL13, anti-CXCL13 antibody (mAB470, R&D Systems) was injected i.p. in sterile 1×PBS at a dose of 100 μg/mouse, once every 3 days, starting 3 days prior to implantation as well.” for “another.”
RNAs for mock-implanted (saline) treated controls, or for 500 μm alginate sphere-bearing C57BL/6 mouse strains (n=4/group), including wild type, knockouts, and serially immune depleted wild type mice, were isolated from tissue samples taken at various time points after implantation, as described. […] In general, respective RNAs were quantified, normalized to the appropriate loading concentration (100 ng/μl), and then 500 ng of each sample was processed according to NanoString manufacturer protocols for expression analysis via our customized multiplexed total (known) mouse cytokine and cytokine receptor expression panel, used for both immune strain comparisons with alginate, and material class comparisons just the wild type C57BL/6 strain. […] RNA levels (absolute copy numbers) were obtained following nCounter (NanoString Technologies Inc., Seattle, Wash.) quantification, and group samples were analyzed using nSolver analysis software (NanoString Technologies Inc., Seattle, Wash.).

[7] = test system: reactive oxygen specie (ROS); experiment: ROS activity assessment of protein lysates from retrieved alginate spheres; format: in vivo, C57BL/6 mice; conditions: lysates from alginate spheres 14 days after IP implantation, two ROS substrates, vs untreated and vehicle
[8] = test system: C57BL/6 mice; experiment: Fibrosis of implanted material spheres retrieved after 14-day intraperitoneal implantation (phase contrast / brightfield imaging); format: in vivo
Source text: All protocols were approved by the MIT Committee on Animal Care, and all surgical procedures and post-operative care were supervised by MIT Division of Comparative Medicine veterinary staff. All mice, wild type male immune-competent (non-diabetic), STZ-induced diabetic, as well as knockout C57BL/6 mice, were ordered pathogen-free from Jackson Laboratory (Bar Harbor, Me.) or Taconic (Hudson, N.Y.). The status of all mice was subsequently verified by testing sentinel animals, shown to be negative for at least 12 known mouse pathogens. Implanted mice were anesthetized with 3% isoflurane in oxygen and had their abdomens shaved and sterilized using betadine and isopropanol. C57BL/6-Nude (T KO, B6NU), C57BL/6-Rag2^null (T & B KO, RAGN12), C57BL/6-Rag2^null/Il2rγ^null (Rag2/γ, 4111) were ordered from Taconic (Hudson, N.Y.), and C57BL/6-IghM^null (BKO, 002288), (C57BL/6) B6.12956-Ccr6tm1(EGFP)Irw/J. (Ccr6, 013061), and C57BL/6-C3 KO (C3 KO, 003641) mice were ordered from Jackson Laboratory, Bar Harbor, Me.). Preoperatively, all mice received 0.05 mg/kg buprenorphine and 0.2 mL of 0.9% saline subcutaneously for pre-surgery analgesia and dehydration prevention. A midline (abdomen) incision (0.5 mm) was made and the peritoneal lining was exposed using blunt dissection. The peritoneal wall was then grasped with forceps and a 0.5-1 mm incision was made along the linea alba. A desired volume of spheres (all materials) were then loaded into a sterile pipette and implanted into the peritoneal cavity. The incision was then closed using 5-0 taper-tipped polydioxanone (PDS II) absorbable sutures, and the skin was closed using a wound clip and VetBond tissue glue. For subcutaneous implantation, ˜200-300 μL of 500 μm SLG20 spheres were injected s.c. following anesthesia with isofluorane. […]

[9] = test system: CXCL10; experiment: CXCL10 ELISA of protein lysates from retrieved alginate spheres and tissue; format: in vivo, C57BL/6 mice; conditions: lysates of alginate spheres and tissue retrieved at 14 days
[10] = RNA extracts 14 days post-implant, alginate

**Q.** With COc1ccc(COc2ccc(Cc3cnc(N)nc3N)cc2OC)cc1 [GW2580] as the compound, how does the “IP macrophage phenotype (CD68 & CD11b staining)” value ([1]; peritoneal lavage after 4 and 14 days of daily treatment, vs vehicle) read?
**A.** shifted (decreased CD68 & CD11b intensities)

**Q.** And the “overall cell numbers in the peritoneal exudate” value ([1]; vs untreated and vehicle-treated)?
**A.** unchanged

**Q.** And the phagocytic activity [2]?
**A.** no significant differences

**Q.** What about the “macrophage, neutrophil and B cell presence on spheres (normalized to cell counts from 100 μl material)” value ([3]; alginate spheres, 14 days post-i.p. implant) of the same compound?
**A.** complete loss

**Q.** What about the “inhibition of host immune attack to alginate, glass and polystyrene spheres” value ([3]; compared with clodrosome-based macrophage depletion, 14 days i.p.) of the same compound?
**A.** as effective as clodrosome-based macrophage depletion

**Q.** And the VEGF protein production [4]?
**A.** spared to normal levels

**Q.** What about the “incision site closure at day 7” value ([5]; 1.5 cm skin incision, daily treatment, day 7, skin stretched apart) of the same compound?
**A.** shut and not pulling apart

**Q.** And the “scarring at day 14” value ([5]; 1.5 cm skin incision, daily treatment, day 14)?
**A.** very little scarring

**Q.** And the “wound resolution and healing potential by width and depth measurements (histology)” value ([5]; day 14 post-incision, vs vehicle)?
**A.** no significant (ns) differences

**Q.** And the “expression of macrophage-associated (downstream) factors (FIG. 13F)” value [6, 10]?
**A.** inhibited

**Q.** And the “expression of macrophage-specific factors (FIG. 13D)” value [6, 10]?
**A.** inhibited

**Q.** What about the “expression of non-immune-associated upstream inflammation-associated gene family (FIG. 18B)” value ([6]; alginate-implanted mice, 14 days) of the same compound?
**A.** decreased back to mock implanted (saline) control levels

**Q.** What about the ROS activity [7] of the same compound?
**A.** no differences

**Q.** What about the “fibrosis on 500 μm alginate spheres” value ([8]; SLG20 alginate 500 μm spheres, 14 day implant, vs wild type/vehicle control) of the same compound?
**A.** prevented the fibrotic response; also recorded: completely eliminated; also recorded: prevents fibrosis

**Q.** What about the “fibrosis on 500 μm glass ceramic spheres” value ([8]; glass spheres, 14 days, vs saline vehicle) of the same compound?
**A.** prevented the fibrotic response; also recorded: prevents fibrosis

**Q.** And the “fibrosis on 500 μm polystyrene polymer spheres” value ([8]; polystyrene spheres, 14 days, vs saline vehicle)?
**A.** prevented the fibrotic response; also recorded: prevents fibrosis

**Q.** What about the CXCL10 protein level [9] of the same compound?
**A.** increased reduction of CXCL10 back to wildtype levels
